# Measurements: patent US9464106B2, “Oligonucleotides useful for detecting and analyzing nucleic acids of interest” (Exiqon A/S, priority 2002, dated 2016)
# l = locked nucleic acid (LNA); d = 2'-deoxy (DNA)
# Experiments:
# [1] = system: 3′-ACGACCAC-5′ / 3′-ACGGCCAC-5′; assay: Tm of LNA:DNA and DNA:DNA 8-mer duplexes, perfect match and single mismatch; assay type: binding; details: for ΔTm: perfect match minus single mismatch; for Tm of LNA:DNA Duplexes, Perfect match: target 3′-ACGACCAC-5′; for Tm of LNA:DNA Duplexes, Single mismatch: target 3′-ACGGCCAC-5′
# Text: It is often difficult to design probes and primers with the same range of melting temperature due to the variance in A/T and G/C content of the probing sites. Highly A/T rich regions typically give lower Tm values. Furthermore, if single mismatches are to be resolved, G/T mismatches are known to contribute little to ΔTm. As discussed above, the use of LNA is a desirable way to solve problems related to multiplex use of primers and probes. LNA offers the possibility to adjust Tm and increase the ΔTm at the same time. LNA increases Tm with 4-8° C./substitution and increases ΔTm in many cases (Table 9).
# [2] = system: C. elegans genes relevant for general stress response and metabolism of toxic compounds; assay: Expression profiling on C. elegans LNA tox oligoarray, beta-naphthoflavone and primaquine; assay type: in vivo, Caenorhabditis elegans; details: cRNA target; 24 hours
# Method: For all cultures the sample is divided into two, and one half of the sample is used as the control, the other as the treated sample. Worm samples are harvested and sucrose cleaned by standard methods. For heat shock treatment: the heat shock sample is added to S-media preheated to 33° C. in a 1 L flask suspended in a water bath at 33° C., the other sample is added to a 1 L flask with S-media at 25° C. Both samples are shaken at approximately 100 rpm. for an hour. For β-naphthoflavone and primaquine treatment: 0.5 mL of 5 mg/mL β-naphthoflavone in DMSO or 0.5 mL of 20 mg/mL primaquine in DMSO were added to each 500 mL volume of S-media culture after 28 hours of growth from L1. At the same time 0.5 mL of DMSO was added to the control. Incubation was for 24 hours. Samples are then harvested by centrifugation at 3000×g suspended in RNALater™ (Ambion) and immediately frozen in liquid nitrogen.
# First and second strand cDNA syntheses were made using the MessageAmp™ aRNA Kit (Ambion) according to suppliers' instructions. Five microgram of C. elegans total RNA was used as template for cDNA syntheses. Syntheses of fluorescent cRNA were made according to the MessageAmp™ aRNA Kit (Ambion) protocol with minor modifications. Cy3™-UTP or Cy5™-UTP (6 μl of a 5 mM solution Amersham Biosciences, USA) replaced biotin-CTP. The final concentration of ATP, CTP, and GTP was 7.5 mM whereas the concentration of UTP was reduced to 4.9 mM.
# The arrays were hybridized overnight using the following protocol. The Cy3™ and Cy5™-labelled cDNA or cRNA samples were combined in one tube followed by addition of 3 μL 20×SSC (3×SSC final), 0.5 μL 1 M HEPES, pH 7.0 (25 mM final), 25 μg yeast tRNA (1.25 μg/μL final), 0.6 μL 10% SDS (0.3% final), and DEPC-treated water to 20 μL final volume. The labelled cDNA target sample was filtered in a Millipore 0.22 micron spin column according to the manufacturer's instructions (Millipore, USA), and the probe was denatured by incubating the reaction at 100° C. for 2 min. The sample was cooled at 20-25° C. for 5 min. by spinning at max speed in a microcentrifuge. A LifterSlip (Erie Scientific Company, USA) was carefully placed on top of the microarray spotted on Immobilizer™ MicroArray Slide and the hybridization mixture was applied to the array from the side. An aliquot of 30 μL of 3×SSC was added to both ends of the hybridization chamber, and the Immobilizer™ MicroArray Slide was placed in the hybridization chamber. The chamber was sealed watertight and incubated at 65° C. for 16-18 hours submerged in a water bath. After hybridisation, the slide was removed carefully from the hybridization chamber and washed using the following protocol. The Lifterslip coverslip was washed off in 2×SSC, pH 7.0 containing 0.1% SDS at room temperature for 1 min., followed by washing of the microarrays subsequently in 1.0×SSC, pH 7.0 at room temperature for 1 min, and then in 0.2×SSC, pH 7.0 at room temperature for 1 min. Finally the slides were washed for 5 seconds in 0.05×SSC, pH 7.0. The slides were then dried by centrifugation in a swinging bucket rotor at approximately 200 G for 2 min. The slide is now ready for scanning.
# Following washing and drying, the slides were scanned using a ScanArray 4000XL scanner (Perkin-Elmer Life Sciences, USA), and the array data were processed using the GenePix™ Pro 4.0 software package (Axon, USA). The data in each image was normalized so that the ratio of means of all of the features is equal to 1.
# [3] = system: complementary single stranded DNA (3′-ctgNatcc); assay: Melting temperatures of DNA and LNA 8-mers containing inosine, 2,6-diaminopurine or 2-aminopurine against complementary DNA; assay type: binding; details: entries 8 and 11
# human satellite-2 repeat = assay: FISH on metaphase chromosomes with satellite-2 LNA/DNA mixmers; assay type: binding; details: for FISH signals on chromosomes: 6.4 pmoles Cy3 labeled probe, 30 minutes at 37° C., simultaneous denaturation at 75° C. for 5 minutes; for FISH signals without a denaturation step: overnight hybridization
# Method: Chromosome preparations were made by standard methods from peripheral lymphocyte cultures of normal males. Slides were prepared 1-4 days prior to an experiment and treated with RNAse (10 μg/μl) at 37° C. for one hour before hybridization. The 23 bp human satellite-2 repeat sequence, [NT], was used to prepare the […] different content and sequence order of LNA modifications (Table 19). All […] labeled in the 5' end with either Cy3 or biotin. Biotin amidite was purchased from Applied Biosystems and Cy3 amidite was purchased from Amersham Bioscience. […] FISH was carried out as described by […], Guven […], Turner Z. (1998) Not para-, not peri-, but centric inversion of chromosome 12. […] (1); with the following modifications including: […] In addition the effect of denaturation was also tested. Two alternative hybridization mixtures were used: 50% formamide/2×SSC (pH 7.0)/10% dextran sulphate or 2×SSC (pH 7.0)/10% dextran sulphate. Hybridization times included 30 min, 1 hr, 2 hrs, 3 hrs and overnight. Hybridization temperatures included: 37° C., 55° C., 60° C. and 72° C. Post washing was either as for standard FISH (1), or with 50% formamide/2×SSC at 60° C., or without formamide. Hybridization signals with biotin labeled LNA substituted oligonucleotide probes were visualized indirectly using two layers of fluorescein-labeled avidin (Vector Labs) linked by a biotinylated anti-avidin molecule, which amplified the signal 8-64 times. The hybridization of Cy3 labeled molecules however, was visualized directly after a short washing procedure. […] The whole procedure was carried out in the dark. The signals were visualized using a Leica DMRB epifluorescence microscope equipped with a SenSys charge-coupled device camera (Photometrics, Tucson, Ariz.), and IPLAB Spectrum Quips FISH software (Applied Imaging international Ltd, Newcastle, UK) within two days after hybridization.
# [4] = system: DNA oligonucleotides (HNFas128A-2, Gluc53as-A); assay: Mismatch discrimination of chimeric LNA-DNA 12-mers containing LNA-A or LNA-D; assay type: binding
compound,measurement,setting,value
"5′-TGCTGGTG-3′ [DNA 8-mer, reference compound]",ΔTm,[1],10 °C
same,"Tm of LNA:DNA Duplexes, Perfect match",[1],35 °C
same,"Tm of LNA:DNA Duplexes, Single mismatch",[1],25 °C
5′-TGCTGGTG-3′ [LNA 8-mer],ΔTm,[1],26 °C
same,"Tm of LNA:DNA Duplexes, Perfect match",[1],71 °C
same,"Tm of LNA:DNA Duplexes, Single mismatch",[1],45 °C
"COc1cc(NC(C)CCCN)c2ncccc2c1 (stereo not drawn) [Primaquine, primaquine]","Log2 transformed fold of change, ABC_F57C12.4",[2],−1.11
same,"Log2 transformed fold of change, CYP_F14F7.2",[2],−1.24
same,"Log2 transformed fold of change, DC_W05G11.3",[2],1.16
same,"Log2 transformed fold of change, ER_26S",[2],−1.09
same,"Log2 transformed fold of change, PPGB_F13D12.6",[2],1.08
same,"Log2 transformed fold of change, RPL_K11H12.2",[2],1.15
"O=c1cc(-c2ccccc2)oc2ccc3ccccc3c12 [beta-naphthoflavone, β-naphthoflavone]","Log2 transformed fold of change, ABC_C34G6.4",[2],1.01
same,"Log2 transformed fold of change, CYP_C03G6.15",[2],2.35
same,"Log2 transformed fold of change, CYP_C06B3.3",[2],2.47
same,"Log2 transformed fold of change, CYP_C49G7.8",[2],2.40
same,"Log2 transformed fold of change, CYP_F14F7.2",[2],−1.03
same,"Log2 transformed fold of change, CYP_K07C6.5",[2],2.68
same,"Log2 transformed fold of change, CYP_K09D9.2",[2],2.14
same,"Log2 transformed fold of change, ER_26S",[2],−1.01
same,"Log2 transformed fold of change, HSP_C47E8.5",[2],1.17
same,"Log2 transformed fold of change, HSP_F26D10.3",[2],1.05
same,"Log2 transformed fold of change, HSP_F43D9.4",[2],1.27
same,"Log2 transformed fold of change, NAP_D2096.8",[2],1.14
same,"Log2 transformed fold of change, PPGB_F13D12.6",[2],1.21
same,"Log2 transformed fold of change, RAD_Y116A8C.133",[2],1.13
same,"Log2 transformed fold of change, RPL_K11H12.2",[2],1.42
same,"Log2 transformed fold of change, Ubi_F25B5.4",[2],1.37
"(1R,3R,4R,7S)-7-(2-Cyanoethoxy(diisopropylamino)phosphinoxy)-1-(4,4′-dimethoxytrityloxymethyl)-3-(hyroxanthin-9-yl)-dioxabicyclo[2.2.1]heptane [compound 11]",stabilization of the complementary duplex on replacement of one internal LNA-A by LNA-D,[3],6.2 °C
"ATtCcAtTcGaTtCcAtTcGaTc (as printed in the source, key not given here) [LNA-2]",FISH signals on chromosomes,human satellite-2 repeat,"signals on chromosomes 1, 16, 9 and 15"
same,FISH signals without a denaturation step,human satellite-2 repeat,giving the best signals
"aTTCcattcgATTccattcGATc (ATTCCATTCGATTCCATTCGATC; sugars from the 5' end dlllddddddlllddddddllld, backbone and methylation of C not given here; 5' end labelled with Cy3 or biotin) [LNA Blocks]",FISH signals on chromosomes,human satellite-2 repeat,smaller signals on chromosome 1
"aTtcCatTcgAtTccAttCgaTc (ATTCCATTCGATTCCATTCGATC; sugars from the 5' end dlddlddlddldlddlddlddld, backbone and methylation of C not given here; 5' end labelled with Cy3 or biotin) [LNA-3]",FISH signals on chromosomes,human satellite-2 repeat,"bright signals on chromosomes 1, 16 and 9"
"aTtccatTcgaTtccAttcgaTc (ATTCCATTCGATTCCATTCGATC; sugars from the 5' end dldddddldddldddldddddld, backbone and methylation of C not given here; 5' end labelled with Cy3 or biotin) [Dispersed LNA]",FISH signals on chromosomes,human satellite-2 repeat,signals on chromosomes 1 and 16 only
"attccattcgattccattcgatc (ATTCCATTCGATTCCATTCGATC; chemistry not given here) [DNA oligo, reference compound]",FISH signals on chromosomes,human satellite-2 repeat,no signals on any of the chromosomes
same,FISH signals without a denaturation step,human satellite-2 repeat,no signals were obtained
cAmCtgGAmCtctt (CACTGGACTCTT; chemistry not given here),ΔTm between singly mismatched and perfect duplexes,[4]; Gluc53as-A,−10.9 °C
same,Tm with aagaggccagtg (singly mismatched),"[4]; Gluc53as-A, duplexes 2 μM",50.6 °C
same,Tm with aagagtccagtg (perfect),"[4]; Gluc53as-A, duplexes 2 μM",61.5 °C
tGtggGATGttg (TGTGGGATGTTG; chemistry not given here),ΔTm between singly mismatched and perfect duplexes,[4]; HNFas128A-2,−15.1 °C
same,Tm with caacaacccaca (singly mismatched),"[4]; HNFas128A-2, duplexes 2 μM",45.9 °C
same,Tm with caacatcccaca (perfect),"[4]; HNFas128A-2, duplexes 2 μM",61.0 °C
